The experiment relates to mechanical hyperalgesia after nerve ligation. The experiment can be described thus: Neuropathic pain model, spinal nerve constriction, von Frey paw withdrawal threshold. The note with it: 90 mg/kg sc, tested 45 minutes after dosing. It counts as in vivo, rat. As to the method: Adult male Sprague-Dawley rats received unilateral constriction of the L6 nerve to produce chronic nerve injury. Following recovery from surgery (3–7 days post operative) animals were tested for paw withdrawal threshold to mechanical stimuli applied to the affected paw. This was determined by the application of calibrated von Frey monofilaments to the plantar surface of each hindpaw. Only animals with a 50% decrease in withdrawal threshold in the ligated paw were employed in the study, and were randomly assigned to one of 6 groups: three groups receiving one of three doses of HP 184 (0.3, 3 and 20 mg/kg, po), a fourth group receiving a single dose of another compound referred to MDL (10 mg/kg, ip), a fifth group receiving gabapentin (90 mg/kg, sc), and a sixth group receiving vehicle only. Behavioral testing occurred 45 minutes following the gabapentin (90 mg/kg, sc), and 3 hours following the HP 184, MDL, and vehicle. A difference score between the ligated and non-ligated paw withdrawal thresholds is calculated for each animal, and these differences were subjected to ANOVA with group as the main factor. […] Analysis was between/within repeated measures ANOVA. […]

SMILES strings stand for the structures.

With `NCC1(CC(=O)O)CCCCC1` [gabapentin, reference compound], the “mechanical hyperalgesia, difference of ligated minus normal paw withdrawal threshold, FIG. 10” value is on record as “clear reversal of hyperalgesia”.

Values taken from patent US7179821B2, “Method of treating of demyelinating diseases or conditions” (Aventis Pharmaceuticals Inc., priority 2001, dated 2007).
